Results reported in PubChem BioAssay AID1259407 (Chemical Carcinogenesis Research Information System (CCRIS), 2018).
Calls of active or inactive are those of the source. How the calls were made is not given here.

Tested on: CCRIS mutagenicity, Ames/micronucleus/aberration tests
Assay: CCRIS mutagenicity studies
[1] = Test System: AMES SALMONELLA TYPHIMURIUM, Strain/Indicator: TA98, Metabolic Activation: NONE, Method: STANDARD PLATE
[2] = Test System: AMES SALMONELLA TYPHIMURIUM, Strain/Indicator: TA100, Metabolic Activation: NONE, Method: PREINCUBATION
[3] = Test System: AMES SALMONELLA TYPHIMURIUM, Strain/Indicator: TA100, Metabolic Activation: NONE, Method: STANDARD PLATE
[4] = Test System: AMES SALMONELLA TYPHIMURIUM, Strain/Indicator: TA100, Metabolic Activation: RAT, LIVER, S-9, AROCLOR 1254, Method: PREINCUBATION
[5] = Test System: AMES SALMONELLA TYPHIMURIUM, Strain/Indicator: TA98, Metabolic Activation: NONE, Method: PREINCUBATION

## COc1ccccc1/C=C/C=O
Test System: AMES SALMONELLA TYPHIMURIUM, Strain/Indicator: TA98, Metabolic Activation: HAMSTER, LIVER, S-9, AROCLOR 1254 (2.5-20%), Method: PREINCUBATION
  mutagenic call: inactive; negative
Test System: AMES SALMONELLA TYPHIMURIUM, Strain/Indicator: TA98, Metabolic Activation: HAMSTER, LIVER, S-9, AROCLOR 1254, Method: STANDARD PLATE
  mutagenic call: inactive; negative
[1]
  mutagenic call: inactive; negative
Test System: AMES SALMONELLA TYPHIMURIUM, Strain/Indicator: TA98, Metabolic Activation: RAT, LIVER, S-9, AROCLOR 1254, Method: STANDARD PLATE
  mutagenic call: inactive; negative
Test System: AMES SALMONELLA TYPHIMURIUM, Strain/Indicator: TA100, Metabolic Activation: HAMSTER, LIVER, S-9, AROCLOR 1254 (2.5-20%), Method: PREINCUBATION
  mutagenic call: inactive; negative
Test System: AMES SALMONELLA TYPHIMURIUM, Strain/Indicator: TA100, Metabolic Activation: HAMSTER, LIVER, S-9, AROCLOR 1254, Method: STANDARD PLATE
  mutagenic call: inactive; negative
[2]
  mutagenic call: inactive; negative
[3]
  mutagenic call: inactive; negative
[4]
  mutagenic call: inactive; negative
Test System: AMES SALMONELLA TYPHIMURIUM, Strain/Indicator: TA100, Metabolic Activation: RAT, LIVER, S-9, AROCLOR 1254, Method: STANDARD PLATE
  mutagenic call: inactive; negative
Test System: AMES SALMONELLA TYPHIMURIUM, Strain/Indicator: TA102, Metabolic Activation: HAMSTER, LIVER, S-9, AROCLOR 1254, Method: PREINCUBATION
  mutagenic call: inactive; negative
Test System: AMES SALMONELLA TYPHIMURIUM, Strain/Indicator: TA102, Metabolic Activation: RAT, LIVER, S-9, AROCLOR 1254, Method: PREINCUBATION
  mutagenic call: inactive; negative
Test System: AMES SALMONELLA TYPHIMURIUM, Strain/Indicator: TA1535, Metabolic Activation: HAMSTER, LIVER, S-9, AROCLOR 1254, Method: STANDARD PLATE
  mutagenic call: inactive; negative
Test System: AMES SALMONELLA TYPHIMURIUM, Strain/Indicator: TA1535, Metabolic Activation: NONE, Method: PREINCUBATION
  mutagenic call: inactive; negative
Test System: AMES SALMONELLA TYPHIMURIUM, Strain/Indicator: TA1535, Metabolic Activation: NONE, Method: STANDARD PLATE
  mutagenic call: inactive; negative
Test System: AMES SALMONELLA TYPHIMURIUM, Strain/Indicator: TA1535, Metabolic Activation: RAT, LIVER, S-9, AROCLOR 1254, Method: STANDARD PLATE
  mutagenic call: inactive; negative
Test System: AMES SALMONELLA TYPHIMURIUM, Strain/Indicator: TA1537, Metabolic Activation: HAMSTER, LIVER, S-9, AROCLOR 1254, Method: STANDARD PLATE
  mutagenic call: inactive; negative
Test System: AMES SALMONELLA TYPHIMURIUM, Strain/Indicator: TA1537, Metabolic Activation: NONE, Method: STANDARD PLATE
  mutagenic call: inactive; negative
Test System: AMES SALMONELLA TYPHIMURIUM, Strain/Indicator: TA1537, Metabolic Activation: RAT, LIVER, S-9, AROCLOR 1254, Method: STANDARD PLATE
  mutagenic call: inactive; negative
Test System: AMES SALMONELLA TYPHIMURIUM, Strain/Indicator: TA1538, Metabolic Activation: HAMSTER, LIVER, S-9, AROCLOR 1254, Method: STANDARD PLATE
  mutagenic call: inactive; negative
Test System: AMES SALMONELLA TYPHIMURIUM, Strain/Indicator: TA1538, Metabolic Activation: NONE, Method: STANDARD PLATE
  mutagenic call: inactive; negative
Test System: AMES SALMONELLA TYPHIMURIUM, Strain/Indicator: TA1538, Metabolic Activation: RAT, LIVER, S-9, AROCLOR 1254, Method: STANDARD PLATE
  mutagenic call: inactive; negative
Test System: Mouse lymphoma, Strain/Indicator: L5178Y (tk+/tk-), Metabolic Activation: None, Method: Suspension/plate
  mutagenic call: active; inconclusive (previous evaluation positive)
Test System: Mouse lymphoma, Strain/Indicator: L5178Y (tk+/tk-), Metabolic Activation: Rat, Liver, S-9, Aroclor 1254, Method: Suspension/plate
  mutagenic call: active; inconclusive (previous evaluation positive)

## C1=COc2c(c3cc4ccccc4cc3c3ccccc23)C=C1
[4]
  mutagenic call: active; positive

## CCC(C)c1ccc(/C=C/c2ccc([N+](=O)[O-])cc2)cc1 (stereo not given)
[1]
  mutagenic call: active; positive
Test System: AMES SALMONELLA TYPHIMURIUM, Strain/Indicator: TA98, Metabolic Activation: RAT, LIVER, S-9, AROCLOR, Method: STANDARD PLATE
  mutagenic call: active; positive
[3]
  mutagenic call: inactive; negative
Test System: AMES SALMONELLA TYPHIMURIUM, Strain/Indicator: TA100, Metabolic Activation: RAT, LIVER, S-9, AROCLOR, Method: STANDARD PLATE
  mutagenic call: active; positive

## O=c1c2[nH]c3ccccc3c2nnn1/N=C/c1ccc(Cl)cc1
Test System: AMES SALMONELLA TYPHIMURIUM, Strain/Indicator: TA97, Metabolic Activation: NONE, Method: PREINCUBATION
  mutagenic call: inactive; negative
Test System: AMES SALMONELLA TYPHIMURIUM, Strain/Indicator: TA97, Metabolic Activation: RAT, LIVER, S-9, AROCLOR 1254 (10%), Method: PREINCUBATION
  mutagenic call: active; positive
[5]
  mutagenic call: active; positive
Test System: AMES SALMONELLA TYPHIMURIUM, Strain/Indicator: TA98, Metabolic Activation: RAT, LIVER, S-9, AROCLOR 1254 (10%), Method: PREINCUBATION
  mutagenic call: active; positive
[2]
  mutagenic call: inactive; negative
Test System: AMES SALMONELLA TYPHIMURIUM, Strain/Indicator: TA100, Metabolic Activation: RAT, LIVER, S-9, AROCLOR 1254 (10%), Method: PREINCUBATION
  mutagenic call: active; positive
Test System: AMES SALMONELLA TYPHIMURIUM, Strain/Indicator: TA102, Metabolic Activation: NONE, Method: PREINCUBATION
  mutagenic call: inactive; negative
Test System: AMES SALMONELLA TYPHIMURIUM, Strain/Indicator: TA102, Metabolic Activation: RAT, LIVER, S-9, AROCLOR 1254 (10%), Method: PREINCUBATION
  mutagenic call: inactive; negative

## [Cl][Pt-2]([Cl])([Cl])([Cl])([Cl])[Cl]
Test System: AMES SALMONELLA TYPHIMURIUM, Strain/Indicator: TA97A, Metabolic Activation: RAT, LIVER, S-9, PHENOBARBITAL AND 5,6-BENZOFLAVONE, Method: STANDARD PLATE
  mutagenic call: active; positive
Test System: AMES SALMONELLA TYPHIMURIUM, Strain/Indicator: TA97A, Metabolic Activation: RAT, LIVER, S-9, PHENOBARBITAL AND BETA-NAPHTHOFLAVONE, Method: STANDARD PLATE
  mutagenic call: active; positive
[5]
  mutagenic call: inactive; negative
[1]
  mutagenic call: active; positive
Test System: AMES SALMONELLA TYPHIMURIUM, Strain/Indicator: TA98, Metabolic Activation: RAT, LIVER, S-9, AROCLOR 1254, Method: PREINCUBATION
  mutagenic call: active; positive
Test System: AMES SALMONELLA TYPHIMURIUM, Strain/Indicator: TA98, Metabolic Activation: RAT, LIVER, S-9, PHENOBARBITAL AND 5,6-BENZOFLAVONE, Method: STANDARD PLATE
  mutagenic call: active; positive
Test System: AMES SALMONELLA TYPHIMURIUM, Strain/Indicator: TA98, Metabolic Activation: RAT, LIVER, S-9, PHENOBARBITAL AND BETA-NAPHTHOFLAVONE, Method: STANDARD PLATE
  mutagenic call: active; positive
[2]
  mutagenic call: inactive; negative
[3]
  mutagenic call: active; positive
[4]
  mutagenic call: inactive; negative
Test System: AMES SALMONELLA TYPHIMURIUM, Strain/Indicator: TA100, Metabolic Activation: RAT, LIVER, S-9, PHENOBARBITAL AND 5,6-BENZOFLAVONE, Method: STANDARD PLATE
  mutagenic call: active; positive
Test System: AMES SALMONELLA TYPHIMURIUM, Strain/Indicator: TA100, Metabolic Activation: RAT, LIVER, S-9, PHENOBARBITAL AND BETA-NAPHTHOFLAVONE, Method: STANDARD PLATE
  mutagenic call: active; positive
Test System: AMES SALMONELLA TYPHIMURIUM, Strain/Indicator: TA102, Metabolic Activation: NONE, Method: STANDARD PLATE
  mutagenic call: active; positive
Test System: AMES SALMONELLA TYPHIMURIUM, Strain/Indicator: TA102, Metabolic Activation: RAT, LIVER, S-9, PHENOBARBITAL AND 5,6-BENZOFLAVONE, Method: STANDARD PLATE
  mutagenic call: active; positive
Test System: AMES SALMONELLA TYPHIMURIUM, Strain/Indicator: TA102, Metabolic Activation: RAT, LIVER, S-9, PHENOBARBITAL AND BETA-NAPHTHOFLAVONE, Method: STANDARD PLATE
  mutagenic call: active; positive

## NC(=S)NNC(N)=S
End Point: IN VITRO CHROMOSOMAL ABERRATIONS, Test System: CHINESE HAMSTER OVARY CELLS, Metabolic Activation: RAT, LIVER, S-9, AROCLOR 1254
  mutagenic call: inactive; negative

## [CH3][Sn]([CH3])([Cl])[Cl]
Test System: AMES SALMONELLA TYPHIMURIUM, Strain/Indicator: TA98, Metabolic Activation: NONE, Method: SUSPENSION/PLATE
  mutagenic call: inactive; negative
Test System: AMES SALMONELLA TYPHIMURIUM, Strain/Indicator: TA100, Metabolic Activation: NONE, Method: SUSPENSION/PLATE
  mutagenic call: inactive; negative
